Laboratory results taken from patent US20260232662A1, “MIR-124 INDUCER, AND PREPARATION METHOD THEREFOR AND USE THEREOF” (NANJING SYNNOCARE PHARMACEUTICAL TECHNOLOGY CO., LTD., priority 2023, published 2026).

Legend:
miR-124 = experiment: Induction of miR-124 expression in PBMC cells (qPCR); format: cell-based; conditions: Homo sapiens, 72 h, 0.1 μM compound, human PBMCs stimulated with PMA/ionomycin, miR-191 reference gene, read-out: miR-124 expression, Fold change vs DMSO
How it was run: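 Human PBMCs (3.0*10^6 cells/well) were stimulated with PMA 10 ng/mL plus ionomycin 200 ng/mL for 48 h, then given compound at 0.1 μM final for 72 h. miR-124 was measured by RT-qPCR against miR-191 as reference gene. Expression is relative to DMSO control.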

DSS-induced IBD in mice = experiment: Preventive and therapeutic effects on DSS-induced inflammatory bowel disease (IBD) in mice; format: in vivo; conditions: for reduction in total DAI scores compared to the model group / Total Disease Activity Index (DAI) Scores / Colon length / colon length as % of normal control values / total DAI scores: 40 mg/kg p.o. q.d.; for Total Disease Activity Index (DAI) Scores / total DAI scores: final day; for Total Disease Activity Index (DAI) Scores / Colon length: mean ± S.E.M.; for Total Disease Activity Index (DAI) Scores: model group 14.50; for Colon length: last experimental day, normal control 6.44, model group 4.98; for colon length as % of normal control values: model group 77.32%; for total DAI scores: model group 14.5 points
Text: This study evaluated the preventive and therapeutic effects of the compounds of the present invention on dextran sulfate sodium (DSS)-induced IBD in mice. The experiment utilized female C57BL/6 mice (purchased from Beijing Vital River Laboratory Animal Technology Co., Ltd.) to establish the DSS-induced IBD model.
Female C57BL/6 mice (6-8 weeks old) were purchased from Beijing Vital River Laboratory Animal Technology Co., Ltd. Upon arrival, the mice were housed in individually ventilated cages (IVC) under specific pathogen-free (SPF) conditions, with 2-6 mice per cage. They were provided with ad libitum access to food and water and maintained at a temperature of 20-26° C. (68-79° F.), relative humidity of 40-70%, and a 12-hour light/dark cycle (lights on from 08:00 to 20:00). After a 7-day acclimatization period, experiments were initiated.
Test compounds and ABX464 vehicle: 5% DMSO+10% Solutol HS-15+85% saline, stored at 4° C.
DSS solution: 2% (w/v) DSS in autoclaved drinking water, prepared fresh before use.
The mice were randomly allocated into eight groups according to body weight: normal control group (negative control), model group (DSS group), ABX464 treatment group, test compound groups (administered with Compounds 19, 43, 59, 84, and 89 of the present invention at 40 mg/kg, p.o., q.d.)
Following a 7-day acclimation period, the model group and compound treatment groups were administered 2% DSS aqueous solution ad libitum for 7 days starting from Day 0, followed by 3 days of normal water consumption. All groups received daily oral gavage of their respective vehicles or test compounds for 10 consecutive days beginning on the trial commencement date. During the experimental period, body weight changes in mice were monitored and recorded daily, the Disease Activity Index (DAI) was scored each day with the total score calculated on the final day, and on the last experimental day all animals were humanely euthanized followed by colon collection and length measurement.
The experimental data were expressed as mean±standard error of the mean (mean±S.E.M.). Statistical analysis was performed using GraphPad Prism or SPSS software with appropriate statistical methods. A value of P<0.05 was considered statistically significant.

[1] = In vivo pharmacokinetic evaluation in mice; conditions: mouse; male ICR mice, po, 10 mg/kg, plasma
Experimental: The compound was administered orally (p.o.) at a dose of 10 mg/kg. The test formulation was prepared at a final concentration of 0.4 mg/mL in 5% DMSO+45% PEG400+50% aqueous solution or suspension. Male ICR mice (9 per group) were sampled at three discontinuous time points (n=3 mice/time point). Approximately 80 μL of blood was collected via orbital or cardiac puncture at 5 min, 15 min, 30 min, 1 h, 2 h, 4 h, 8 h, and 24 h post-dose. All whole blood samples were collected in EDTA K2-containing tubes. After centrifugation at 4° C. (4000 rpm, 10 min), plasma was collected and stored below −40° C. for subsequent analysis. Compound concentrations in plasma were determined by liquid chromatography-tandem mass spectrometry (LC-MS/MS), and pharmacokinetic parameters were derived from the plasma concentration-time curves.

[2] = day 10, 40 mg/kg p.o. q.d., female C57BL/6 mice, 2% DSS

SMILES | fold induction at 0.1 µM (miR-124) | reduction in total DAI scores compared to the model group (DSS-induced IBD in mice) | body weight loss percentage (DSS-induced IBD in mice; [2]) | Total Disease Activity Index (DAI) Scores (DSS-induced IBD in mice) | Colon length (DSS-induced IBD in mice) | AUC(0-t) [1] | Cmax [1] | Tmax [1] | half-life [1] | colon length as % of normal control values (DSS-induced IBD in mice) | body weight gain percentage (DSS-induced IBD in mice; [2]) | total DAI scores (DSS-induced IBD in mice)
FC(F)(F)Oc1ccc(Nc2ccc3cccc(Cl)c3n2)cc1 [ABX464, reference compound] | 13.5 | 5.72% | 5.37% | 13.67 | 6.22 cm | 420 ng·h/mL | 168 ng/mL | 0.5 h | 1.08 h |  |  | 
FC(F)(F)Oc1ccc(Nc2nc3c(Cl)cccc3n3ccnc23)cc1Cl [Compound 19] | 21.2 | 42.55% |  | 8.33 | 6.20 cm | 1640 ng·h/mL | 358 ng/mL | 4 h | 3.36 h | 96.27% | 0.16% | 8.33 points
Fc1cc(Nc2nc3c(F)cccc3n3ccnc23)ccc1OC(F)(F)F [Compound 43] | 18.9 |  | 2.22% | 10.03 | 6.42 cm | 1680 ng·h/mL | 348 ng/mL | 2 h | 3.87 h | 99.69% |  | 10.03 points
